According to patent US10363251B2, “(+)-morphinans as antagonists of toll-like receptor 9 and therapeutic uses thereof” (Mallinckrodt LLC, priority 2009, dated 2019):
Entries after “also recorded” stand apart in the source; their conditions may differ. Read-outs that look alike come from different tables or passages of the source.

Key:
[1] = target: T1, TLR9 (Homo sapiens, UniProt Q9NR96); test: TLR9 screening of (+)-morphinan library, SEAP reporter in HEK293 cells expressing TLR9; assay type: cell-based; conditions: activator ODN2006; for OD 650 nm (mean ± sd): control (no activator) 0.14, activator 1.42 OD
T1 construct: expressed in transfected cells; host or cells: HEK293
T1 sequence (Q9NR96 26-1032): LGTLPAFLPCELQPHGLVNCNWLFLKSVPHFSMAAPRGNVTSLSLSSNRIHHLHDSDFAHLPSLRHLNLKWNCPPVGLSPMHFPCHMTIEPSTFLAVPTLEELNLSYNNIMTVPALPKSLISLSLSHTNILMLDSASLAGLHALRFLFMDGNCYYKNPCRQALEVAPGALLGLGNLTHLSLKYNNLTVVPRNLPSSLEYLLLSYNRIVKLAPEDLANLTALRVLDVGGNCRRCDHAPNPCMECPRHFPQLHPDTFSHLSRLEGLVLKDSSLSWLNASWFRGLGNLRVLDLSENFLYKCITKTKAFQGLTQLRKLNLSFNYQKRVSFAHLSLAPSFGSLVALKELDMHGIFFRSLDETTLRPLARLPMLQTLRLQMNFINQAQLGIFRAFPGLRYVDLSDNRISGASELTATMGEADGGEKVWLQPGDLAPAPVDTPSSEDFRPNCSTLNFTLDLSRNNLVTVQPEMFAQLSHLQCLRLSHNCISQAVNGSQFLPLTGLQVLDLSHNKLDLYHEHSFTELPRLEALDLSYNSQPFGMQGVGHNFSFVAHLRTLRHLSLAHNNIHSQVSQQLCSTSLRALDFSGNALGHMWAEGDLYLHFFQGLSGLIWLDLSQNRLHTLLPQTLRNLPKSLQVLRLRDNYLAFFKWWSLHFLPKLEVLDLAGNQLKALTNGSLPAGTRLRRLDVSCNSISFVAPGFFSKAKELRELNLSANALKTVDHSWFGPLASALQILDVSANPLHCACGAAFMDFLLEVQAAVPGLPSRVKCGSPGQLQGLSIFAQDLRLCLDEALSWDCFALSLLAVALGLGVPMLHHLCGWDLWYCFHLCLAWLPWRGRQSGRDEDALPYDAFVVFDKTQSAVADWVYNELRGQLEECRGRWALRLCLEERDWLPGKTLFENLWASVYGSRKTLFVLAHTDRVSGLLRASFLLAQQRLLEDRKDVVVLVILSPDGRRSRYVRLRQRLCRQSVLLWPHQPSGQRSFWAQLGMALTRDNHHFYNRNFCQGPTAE
In short: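 HEK293 cells expressing TLR9 with an NF-κB-inducible SEAP reporter were preincubated with compound at 10 μM and 100 nM for 30 min at 37 °C, then stimulated with ODN2006. SEAP was read as OD 650 nm after 16-20 h, in triplicate.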

[2] = test system: chronic constriction injury (CCI) neuropathic pain model; test: Reversal of allodynia (von Frey) in CCI rats, 4 days of dosing, Example 4; assay type: in vivo, rat; conditions: for Reversal of allodynia (von Frey): i.p. once a day for 4 days from day 14, tested 3 hrs after dosing, ultra low to high dose; for Reversal of allodynia (von Frey) / Area under the curve (AUC) analysis of allodynia: vs saline; for Animals sleepier/sedated on at least one post dosing occasion / Local observations (swelling, irritation): i.p.; for Area under the curve (AUC) analysis of allodynia: i.p. once a day for 4 days
Description: Allodynia was induced in a group of (male, Sprague-Dawley) rats essentially as described above in Example 3. Prior to surgery, animals were tested to establish their baseline von Frey scores. Any animal with a Log absolute von Frey score lower than 4.65 on either leg was excluded from the study. CCI surgery was performed on the left sciatic nerve as detailed above. On days 4 and 14 post-surgery, the animals were tested using the von Frey test of mechanical allodynia to ensure that allodynia was established.
Beginning at about day 14 post-surgery, the animals were dosed once a day for 4 days. Compounds II-25, II-93, II-62, and III-2 were tested. All drugs were administered intraperitoneally (i.p.). Allodynia was tested prior to and again 3 hrs after each dosing. Drug administration and testing was done blindly. After the 4th day of dosing, the animals were sacrificed, cardiac perfusion was performed, and spinal cords were removed and stored for further analysis.
All data were analyzed using 2-way ANOVA's with Bonferroni's post hoc test compared to saline unless otherwise stated. Area under curve (AUC) was calculated using Graphpad Prism and comparisons were made using 1-way ANOVA with Dunnet's post hoc test.

[3] = test system: APAP-induced liver toxicity; test: Acetaminophen (APAP)-induced hepatotoxicity model; assay type: in vivo, mouse; conditions: APAP 500 mg/Kg ip, 12 hours post-APAP; for Protection from APAP-induced toxicity: test doses and timing per Table 6; for Liver histology scores (necrosis and hemorrhage): vs APAP alone
Description: For this, APAP-induced liver toxicity was induced in male C57BL/6 mice aged between 8-10 weeks by a single intraperitoneal (ip) injection of APAP in PBS at a dose of 500 mg/Kg (Imaeda et al. (2009) J. Clin. Invest. 119(2):305-314). The ability of (+)-morphinans to reduce liver toxicity was tested in the following groups:
The (+)-morphinan (or PBS) was either administered as a single subcutaneous (sc) or ip injection concurrent with the APAP injection or one hour prior to the APAP injection.
The mice were sacrificed 12 hours post-APAP treatment. Liver samples were stained with H&E and analyzed for signs of necrosis and hemorrhage. Histology scores were assigned using the standard rating scale. The levels of serum alanine transaminase (ALT) were also measured in each animal using a standard assay.

[4] = HEK293, read-out: % Inhibition (mean), 100 nM
[5] = HEK293, read-out: % Inhibition (mean), 10 μM

SMILES | OD 650 nm (mean ± sd) ([1]; 100 nM) [OD] | OD 650 nm (mean ± sd) ([1]; 10 μM) [OD] | inhibition at 0.1 µM ([1]; HEK293, 100 nM, read-out: % Inhibition (mean)) [%] | inhibition at 10 µM ([1]; HEK293, 10 μM, read-out: % Inhibition (mean)) [%] | Reversal of allodynia (von Frey) [2] | Animals sleepier/sedated on at least one post dosing occasion ([2]; low dose) | Protection from APAP-induced toxicity [3] | Liver histology scores (necrosis and hemorrhage) [3] | inhibition at 0.1 µM [1, 4] [%] | inhibition at 10 µM [1, 5] [%] | Time course analysis of allodynia, ipsilateral paw ([2]; Day 4 of dosing) | Animals sleepier/sedated on at least one post dosing occasion ([2]; high dose) | Local observations (swelling, irritation) ([2]; high dose) | Area under the curve (AUC) analysis of allodynia [2] | Animals sleepier/sedated on at least one post dosing occasion ([2]; medium dose)
C=CCN1CCc2cc(OC)ccc2[C@H]1Cc1ccc(OC)c(O)c1 [III-2] | 1.13 ± 0.02 | 0.42 ± 0.04 | 21 | 71 | no effect on allodynia at any dose | Two | None of compounds II-24, II-93, or III-2 provided any protection | about the same as those only exposed to APAP |  |  |  |  |  |  | 
CN(C(=O)/C=C/c1ccoc1)[C@H]1CC[C@]2(O)[C@@H]3Cc4ccc(O)c5c4[C@]2(CCN3CC2CC2)[C@@H]1O5 [II-62] | 1.34 ± 0.05 | 0.18 ± 0.01 |  |  | did not significantly reverse allodynia at any dose | one |  |  | 6 | 87 | slight reversal of allodynia | two | appeared to irritate the rats when it was injected; also recorded: swelling around the site of injection | no overall effect of any dose | one
COc1ccc2c3c1O[C@@H]1[C@H](O)CC[C@@H]4[C@H](C2)N(CC2CC2)CC[C@]341 [II-25] | 1.33 ± 0.07 | 0.21 ± 0.06 |  |  | significant overall effect on the reversal of allodynia bilaterally; also recorded: effective at reversing mechanical allodynia |  |  |  | 6 | 85 |  | 5-6 |  | significantly reversed allodynia | 
C=CCN1CC[C@@]23c4c5ccc(OC)c4OC2C(NCCC)CCC3C1C5 (stereo partly drawn) [II-93] | 0.12 ± 0.00 | 0.11 ± 0.01 |  |  | significantly reversed allodynia in the ipsilateral paw after the high dose only; also recorded: effective at reversing mechanical allodynia | one | None of compounds II-24, II-93, or III-2 provided any protection | about the same as those only exposed to APAP | 91 | 92 |  | 7 | swelling of the ipsilateral paw | significant reversal of allodynia in the ipsilateral paw | two
COC1=CC=C2[C@@H]3Cc4ccc(OC)c5c4[C@]2(CCN3CC2CC2)[C@@H]1O5 [II-36] | 1.14 ± 0.02 | 0.14 ± 0.01 |  |  |  |  |  |  | 20 | 90 |  |  |  |  | 
COc1ccc2c3c1O[C@@H]1C(=O)CC[C@@H]4[C@H](C2)N(Cc2ccccc2)CC[C@@]314 [II-29] | 1.36 ± 0.17 | 0.33 ± 0.03 |  |  |  |  |  |  | 4 | 77 |  |  |  |  | 
COc1ccc2c3c1OC1C(O)CC[C@@H]4[C@H](C2)N(C)CC[C@@]314 (stereo partly drawn) [II-7] | 1.32 ± 0.08 | 0.13 ± 0.02 |  |  |  |  |  |  | 7 | 91 |  |  |  |  | 
COc1ccc2c3c1O[C@@H]1C4(CCC5[C@H](C2)N(CC2CC2)CC[C@]351)OCCO4 (stereo partly drawn) [II-97] | 1.22 ± 0.02 | 1.42 ± 0.07 |  |  |  |  |  |  | 14 | 0 |  |  |  |  | 
COc1ccc2c3c1O[C@@H]1[C@@H]4CCC5(O4)[C@H](C2)N(C)CC[C@@]315 [II-46] | 1.24 ± 0.02 | 1.30 ± 0.02 |  |  |  |  |  |  | 13 | 8 |  |  |  |  | 
COc1cc(Br)c2c(c1OC(C)=O)[C@@]13CCN(CC4CC4)C(C2)C1CCC(=O)C3 (stereo partly drawn) [Compound I-12] | 1.19 ± 0.07 | 0.13 ± 0.01 |  |  |  |  |  |  | 16 | 91 |  |  |  |  | 
COc1ccc2c(c1O)[C@]13C=CCC[C@]1(O)[C@H](C2)N(C)CC3 [Compound I-22] | 0.93 ± 0.15 | 0.10 ± 0.01 |  |  |  |  |  |  | 34 | 93 |  |  |  |  | 
